ChEMBL document CHEMBL1155520, “Novel 8a-aza-8a-homoerythromycin--4''-(3-substituted-amino)propionates with broad spectrum antibacterial activity” (2010)
≈ marks a conversion by molar mass, not a printed value.

How the values were obtained:
Type in all cases: functional
[1] = test system: Streptococcus pneumoniae; assay: Antimicrobial activity against inducible macrolide and constitutive lincosamide, streptogramin-resistant Streptococcus pneumoniae 4636
[2] = test system: Streptococcus pyogenes; assay: Antimicrobial activity against inducible macrolide, lincosamide, streptogramin-resistant Streptococcus pyogenes Finland 11
[3] = test system: Streptococcus pyogenes; assay: Antimicrobial activity against macrolide-sensitive Streptococcus pyogenes 3665
[4] = test system: Haemophilus influenzae; assay: Antimicrobial activity against Haemophilus influenzae ATCC 49247
[5] = test system: Streptococcus pneumoniae; assay: Antimicrobial activity against macrolide-sensitive Streptococcus pneumoniae SPO 30
[6] = test system: Staphylococcus aureus; assay: Antimicrobial activity against macrolide-sensitive Staphylococcus aureus ATCC 13709
[7] = test system: Streptococcus pneumoniae; assay: Antimicrobial activity against macrolide-resistant Streptococcus pneumoniae Ci137
[8] = test system: Streptococcus pneumoniae; assay: Antimicrobial activity against inducible macrolide and constitutive lincosamide, streptogramin-resistant Streptococcus pneumoniae 58 Spain
[9] = test system: Streptococcus pneumoniae; assay: Antimicrobial activity against inducible macrolide, lincosamide, streptogramin-resistant Streptococcus pneumoniae 134 GRM
[10] = test system: Streptococcus pyogenes; assay: Antimicrobial activity against inducible macrolide and constitutive lincosamide, streptogramin-resistant Streptococcus pyogenes 166 GR-micro
[11] = test system: Staphylococcus aureus; assay: Antimicrobial activity against macrolide-sensitive Staphylococcus aureus PK1
[12] = test system: Streptococcus pyogenes; assay: Antimicrobial activity against inducible macrolide-resistant Streptococcus pyogenes Finland 3

Compound: CC[C@H]1OC(=O)[C@H](C)[C@@H](O[C@H]2C[C@@](C)(OC)[C@@H](OC(=O)CCN3CCN(c4ccc([N+](=O)[O-])cc4)CC3)[C@H](C)O2)[C@H](C)[C@@H](O[C@@H]2O[C@H](C)C[C@H](N(C)C)[C@H]2O)[C@](C)(OC)C[C@@H](C)NC(=O)[C@H](C)[C@@H](O)[C@]1(C)O
- MIC [1]: 8 µg/mL (≈ 7.81 µM)
- MIC [2]: 8 µg/mL (≈ 7.81 µM)
- MIC [3]: < 0.13 µg/mL
- MIC [4]: 2 µg/mL (≈ 1.95 µM)
- MIC [5]: < 0.13 µg/mL
- MIC [6]: 2 µg/mL (≈ 1.95 µM)
- MIC [7]: 1 µg/mL (≈ 0.976 µM)

Compound: CC[C@H]1OC(=O)[C@H](C)[C@@H](O[C@H]2C[C@@](C)(OC)[C@@H](OC(=O)CCNCC(=O)Nc3cnc4ccccc4c3)[C@H](C)O2)[C@H](C)[C@@H](O[C@@H]2O[C@H](C)C[C@H](N(C)C)[C@H]2O)[C@](C)(OC)C[C@@H](C)NC(=O)[C@H](C)[C@@H](O)[C@]1(C)O
- MIC [1]: > 32 µg/mL
- MIC [2]: 16 µg/mL (≈ 15.7 µM)
- MIC [3]: < 0.13 µg/mL
- MIC [4]: > 32 µg/mL
- MIC [5]: < 0.13 µg/mL
- MIC [6]: 2 µg/mL (≈ 1.96 µM)
- MIC [7]: 2 µg/mL (≈ 1.96 µM)

Compound: CC[C@H]1OC(=O)[C@H](C)[C@@H](O[C@H]2C[C@@](C)(OC)[C@@H](OC(=O)CCNCC(=O)Nc3cccc4ncccc34)[C@H](C)O2)[C@H](C)[C@@H](O[C@@H]2O[C@H](C)C[C@H](N(C)C)[C@H]2O)[C@](C)(OC)C[C@@H](C)NC(=O)[C@H](C)[C@@H](O)[C@]1(C)O
- MIC [1]: > 32 µg/mL
- MIC [2]: 32 µg/mL (≈ 31.4 µM)
- MIC [3]: 0.25 µg/mL (≈ 0.246 µM)
- MIC [4]: > 32 µg/mL
- MIC [5]: < 0.13 µg/mL
- MIC [6]: 8 µg/mL (≈ 7.86 µM)
- MIC [7]: 16 µg/mL (≈ 15.7 µM)

Compound: CC[C@H]1OC(=O)[C@H](C)[C@@H](O[C@H]2C[C@@](C)(OC)[C@@H](OC(=O)CCNCC(=O)Nc3ccc4cccnc4c3)[C@H](C)O2)[C@H](C)[C@@H](O[C@@H]2O[C@H](C)C[C@H](N(C)C)[C@H]2O)[C@](C)(OC)C[C@@H](C)NC(=O)[C@H](C)[C@@H](O)[C@]1(C)O
- MIC [1]: > 32 µg/mL
- MIC [2]: 16 µg/mL (≈ 15.7 µM)
- MIC [3]: < 0.13 µg/mL
- MIC [4]: > 32 µg/mL
- MIC [5]: < 0.13 µg/mL
- MIC [6]: 2 µg/mL (≈ 1.96 µM)
- MIC [7]: 4 µg/mL (≈ 3.93 µM)

Compound: CC[C@H]1OC(=O)[C@H](C)[C@@H](O[C@H]2C[C@@](C)(OC)[C@@H](OC(=O)CCNCCNc3cncc([N+](=O)[O-])c3)[C@H](C)O2)[C@H](C)[C@@H](O[C@@H]2O[C@H](C)C[C@H](N(C)C)[C@H]2O)[C@](C)(OC)C[C@@H](C)NC(=O)[C@H](C)[C@@H](O)[C@]1(C)O
- MIC [1]: 4 µg/mL (≈ 4 µM)
- MIC [2]: 0.25 µg/mL (≈ 0.25 µM)
- MIC [3]: < 0.13 µg/mL
- MIC [4]: 4 µg/mL (≈ 4 µM)
- MIC [5]: < 0.13 µg/mL
- MIC [6]: 0.25 µg/mL (≈ 0.25 µM)
- MIC [7]: 0.5 µg/mL (≈ 0.5 µM)

Compound: CC[C@H]1OC(=O)[C@H](C)[C@@H](O[C@H]2C[C@@](C)(OC)[C@@H](OC(=O)CCN3CCN(c4cc5c(cc4F)c(=O)ccn5C4CC4)CC3)[C@H](C)O2)[C@H](C)[C@@H](O[C@@H]2O[C@H](C)C[C@H](N(C)C)[C@H]2O)[C@](C)(O)C[C@@H](C)NC(=O)[C@H](C)[C@@H](O)[C@]1(C)O
- MIC [8]: > 32 µg/mL
- MIC [2]: 0.5 µg/mL (≈ 0.459 µM)
- MIC [4]: 8 µg/mL (≈ 7.34 µM)
- MIC [6]: 1 µg/mL (≈ 0.917 µM)
- MIC [9]: > 32 µg/mL
- MIC [7]: < 0.13 µg/mL

Compound: CC[C@H]1OC(=O)[C@H](C)[C@@H](O[C@H]2C[C@@](C)(OC)[C@@H](OC(=O)CCN3CCN(c4cc5c(cc4F)c(=O)ccn5C4CC4)CC3)[C@H](C)O2)[C@H](C)[C@@H](O[C@@H]2O[C@H](C)C[C@H](N(C)C)[C@H]2O)[C@](C)(OC)C[C@@H](C)NC(=O)[C@H](C)[C@@H](O)[C@]1(C)O
- MIC [8]: 64 µg/mL (≈ 58 µM)
- MIC [10]: > 64 µg/mL
- MIC [2]: 1 µg/mL (≈ 0.905 µM)
- MIC [4]: 8 µg/mL (≈ 7.24 µM)
- MIC [6]: 1 µg/mL (≈ 0.905 µM)
- MIC [9]: > 64 µg/mL
- MIC [11]: 8 µg/mL (≈ 7.24 µM)
- MIC [12]: < 0.13 µg/mL
- MIC [7]: < 0.13 µg/mL
